Measured values: patent US20240317721A1, “PYRAZOLYL DERIVATIVES AS INHIBITORS OF THE KRAS MUTANT PROTEIN” (NOVARTIS AG, priority 2021, published 2024)

Target: KRasG12C (M1-K169, biotinylated on the N-terminus) (Homo sapiens (Human), UniProt P01116, G12C)
Assay: Covalent competition assay: scintillation proximity assay (SPA) quantifying covalent modification of KRASG12C
Type: binding
Conditions: competition with radiolabeled covalent probe (Compound B/Compound A), 2 hours incubation, 10 nM KRasG12C
Outline: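 Test compounds compete with a radiolabeled covalent probe for modification of N-terminally biotinylated KRasG12C(M1-K169):GDP, final 10 nM protein, 25 nM radio-ligand, 475 nM unlabelled ligand, 2 h with agitation in 20 mM Tris-HCl pH 7.5, 150 mM NaCl, 0.1 mM MgCl2, 0.01% Tween-20.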

Row | SMILES | IC50 [nM]
1 | C=CC(=O)N1CC2(CC(n3nc(N4CC[C@@H](CN5CCOC6(C5)CN(C(C)=O)C6)CC4(C)C)c(-c4c(Cl)c(Cl)cc5[nH]ncc45)c3C)C2)C1 (single isomer, unassigned) [Example 311b] | 18
2 | C=CC(=O)N1CC2(CC(n3nc(N4CC[C@@H](CN5CCN6C(=O)OCC6C5)CC4(C)C)c(-c4c(Cl)c(Cl)cc5[nH]ncc45)c3C)C2)C1 (single isomer, unassigned) [Example 312a] | 831
3 | C=CC(=O)N1CC2(CC(n3nc(N4CC[C@@H](CN5CCN6C(=O)OCC6C5)CC4(C)C)c(-c4c(Cl)c(Cl)cc5[nH]ncc45)c3C)C2)C1 (single isomer, unassigned) [Example 312b] | 9
4 | C=CC(=O)N1CC2(CC(n3nc(N4CC[C@@H](CN5CCC[C@H]5C(=O)N(C)C)CC4(C)C)c(-c4c(Cl)c(Cl)cc5[nH]ncc45)c3C)C2)C1 (single isomer, unassigned) [Example 313a] | 410
5 | C=CC(=O)N1CC2(CC(n3nc(N4CC[C@@H](CN5CCC[C@H]5C(=O)N(C)C)CC4(C)C)c(-c4c(Cl)c(Cl)cc5[nH]ncc45)c3C)C2)C1 (single isomer, unassigned) [Example 313b] | 6
6 | C=CC(=O)N1CC2(CC(n3nc(N4CC[C@@H](CN5CC6CCC(C5)O6)CC4(C)C)c(-c4c(Cl)c(Cl)cc5[nH]ncc45)c3C)C2)C1 (single isomer, unassigned) [Example 314a] | 2100
7 | C=CC(=O)N1CC2(CC(n3nc(N4CC[C@@H](CN5CC6CCC(C5)O6)CC4(C)C)c(-c4c(Cl)c(Cl)cc5[nH]ncc45)c3C)C2)C1 (single isomer, unassigned) [Example 314b] | 52
8 | C=CC(=O)N1CC2(CC(n3nc(N4CC[C@@H](CN5C6CCC5CN(C(C)=O)C6)CC4(C)C)c(-c4c(Cl)c(Cl)cc5[nH]ncc45)c3C)C2)C1 (single isomer, unassigned) [Example 318a] | 4000
9 | C=CC(=O)N1CC2(CC(n3nc(N4CC[C@@H](CN5C6CCC5CN(C(C)=O)C6)CC4(C)C)c(-c4c(Cl)c(Cl)cc5[nH]ncc45)c3C)C2)C1 (single isomer, unassigned) [Example 318b] | 7
10 | C=CC(=O)N1CC2(CC(n3nc(N4C[C@H]5C[C@@H]4CN5C(C)=O)c(-c4c(Cl)c(C)cc5[nH]ncc45)c3C)C2)C1 [Example 5, 1-(6-(3-((1R,4R)-5-acetyl-2,5-diazabicyclo[2.2.1]heptan-2-yl)-4-(5-chloro-6-methyl-1H-indazol-4-yl)-5-methyl-1H-pyrazol-1-yl)-2-azaspiro[3.3]heptan-2-yl)prop-2-en-1-one] | 2200
11 | C=CC(=O)N1CC2(CC(n3nc(N4C[C@@H]5C[C@H]4CN5C(C)=O)c(-c4c(Cl)c(C)cc5[nH]ncc45)c3C)C2)C1 [Example 6, 1-(6-(3-((1S,4S)-5-acetyl-2,5-diazabicyclo[2.2.1]heptan-2-yl)-4-(5-chloro-6-methyl-1H-indazol-4-yl)-5-methyl-1H-pyrazol-1-yl)-2-azaspiro[3.3]heptan-2-yl)prop-2-en-1-one] | 1000
12 | C=CC(=O)N1CC2(CC(n3nc(N4Cc5cnn(C)c5C4)c(-c4c(Cl)c(C)cc5[nH]ncc45)c3C)C2)C1 [Example 12, 1-(6-(4-(5-chloro-6-methyl-1H-indazol-4-yl)-5-methyl-3-(1-methyl-4,6-dihydropyrrolo[3,4-c]pyrazol-5(1H)-yl)-1H-pyrazol-1-yl)-2-azaspiro[3.3]heptan-2-yl)prop-2-en-1-one] | 1400
13 | C=CC(=O)N1CC2(CC(n3nc(N4CCC5C(=O)N(C)CC5C4)c(-c4c(Cl)c(C)cc5[nH]ncc45)c3C)C2)C1 (stereo not drawn) [Example 16, (3aS*,7aS*)-5-(1-(2-acryloyl-2-azaspiro[3.3]heptan-6-yl)-4-(5-chloro-6-methyl-1H-indazol-4-yl)-5-methyl-1H-pyrazol-3-yl)-2-methyloctahydro-1H-pyrrolo[3,4-c]pyridin-1-one] | 1000
14 | C=CC(=O)N1CC2(CC(n3nc(N4CCC5C(=O)N(C)CC5C4)c(-c4c(Cl)c(C)cc5[nH]ncc45)c3C)C2)C1 (stereo not drawn) [Example 17, (3aS*,7aS*)-5-(1-(2-acryloyl-2-azaspiro[3.3]heptan-6-yl)-4-(5-chloro-6-methyl-1H-indazol-4-yl)-5-methyl-1H-pyrazol-3-yl)-2-methyloctahydro-1H-pyrrolo[3,4-c]pyridin-1-one] | 829
15 | C=CC(=O)N1CC2(CC(n3nc(N4CCC(=O)CC45CCC5)c(-c4c(Cl)c(C)cc5[nH]ncc45)c3C)C2)C1 [Example 46, 5-(1-(2-acryloyl-2-azaspiro[3.3]heptan-6-yl)-4-(5-chloro-6-methyl-1H-indazol-4-yl)-5-methyl-1H-pyrazol-3-yl)-5-azaspiro[3.5]nonan-8-one] | 138
16 | C=CC(=O)N1CC2(CC(n3nc(N4CCC(=O)CC45CCC5)c(-c4c(Cl)c(C)cc5[nH]ncc45)c3C)C2)C1 [Example 47, 5-(1-(2-acryloyl-2-azaspiro[3.3]heptan-6-yl)-4-(5-chloro-6-methyl-1H-indazol-4-yl)-5-methyl-1H-pyrazol-3-yl)-5-azaspiro[3.5]nonan-8-one] | > 5000
17 | C=CC(=O)N1CC2(CC(n3nc(N4CCCC45CCOCC5)c(-c4c(Cl)c(C)cc5[nH]ncc45)c3C)C2)C1 [Example 60, 1-(6-(4-(5-chloro-6-methyl-1H-indazol-4-yl)-5-methyl-3-(8-oxa-1-azaspiro[4.5]decan-1-yl)-1H-pyrazol-1-yl)-2-azaspiro[3.3]heptan-2-yl)prop-2-en-1-one] | 4900
18 | C=CC(=O)N1CC2(CC(n3nc(N4[C@H]5CC[C@@H]4CN(C)CC5)c(-c4c(Cl)c(C)cc5[nH]ncc45)c3C)C2)C1 [Example 64, 1-(6-(4-(5-chloro-6-methyl-1H-indazol-4-yl)-5-methyl-3-((1R,6S)-3-methyl-3,9-diazabicyclo[4.2.1]nonan-9-yl)-1H-pyrazol-1-yl)-2-azaspiro[3.3]heptan-2-yl)prop-2-en-1-one] | 519
19 | C=CC(=O)N1CC2(CC(n3nc(N4CCC(N5C6CCC5COC6)CC4(C)C)c(-c4c(Cl)c(C)cc5[nH]ncc45)c3C)C2)C1 [Example 74a, 1-(6-(3-(4-((1R,5S)-3-oxa-8-azabicyclo[3.2.1]octan-8-yl)-2,2-dimethylpiperidin-1-yl)-4-(5-chloro-6-methyl-1H-indazol-4-yl)-5-methyl-1H-pyrazol-1-yl)-2-azaspiro[3.3]heptan-2-yl)prop-2-en-1-one] | > 5000
20 | C=CC(=O)N1CC2(CC(n3nc(N4CCC(N5C6CCC5COC6)CC4(C)C)c(-c4c(Cl)c(C)cc5[nH]ncc45)c3C)C2)C1 [Example 75a, 1-(6-(3-(4-((1R,5S)-3-oxa-8-azabicyclo[3.2.1]octan-8-yl)-2,2-dimethylpiperidin-1-yl)-4-(5-chloro-6-methyl-1H-indazol-4-yl)-5-methyl-1H-pyrazol-1-yl)-2-azaspiro[3.3]heptan-2-yl)prop-2-en-1-one] | > 5000
21 | C=CC(=O)N1CC2(CC(n3nc(N4CCN(C(C)=O)CC4(C)C)c(-c4cc(O)cc5ccccc45)c3C)C2)C1 [Example 77, 1-(6-(3-(4-acetyl-2,2-dimethylpiperazin-1-yl)-4-(3-hydroxynaphthalen-1-yl)-5-methyl-1H-pyrazol-1-yl)-2-azaspiro[3.3]heptan-2-yl)prop-2-en-1-one] | 1200
22 | C=CC(=O)N1CC2(CC(n3nc(N4CCC(C(=O)N(C)C)CC4(C)C)c(-c4c(Cl)c(C)cc5[nH]ncc45)c3C)C2)C1 (centres unmarked) [Example 98a, 1-(1-(2-acryloyl-2-azaspiro[3.3]heptan-6-yl)-4-(5-chloro-6-methyl-1H-indazol-4-yl)-5-methyl-1H-pyrazol-3-yl)-N,N,2,2-tetramethylpiperidine-4-carboxamide] | > 5000

More lines, now with the values ahead:

Row | IC50 [nM] | SMILES
23 | 2000 | C=CC(=O)N1CC2(CC(n3nc(N4CC[C@@H](CN5CCCN(C(C)=O)CC5)CC4(C)C)c(-c4c(Cl)c(Cl)cc5[nH]ncc45)c3C)C2)C1 (single isomer, unassigned) [Example 315a]
24 | 7 | C=CC(=O)N1CC2(CC(n3nc(N4CC[C@@H](CN5CCCN(C(C)=O)CC5)CC4(C)C)c(-c4c(Cl)c(Cl)cc5[nH]ncc45)c3C)C2)C1 (single isomer, unassigned) [Example 315b]
25 | 1200 | C=CC(=O)N1CC2(CC(n3nc(N4CC[C@@H](CN5CC6(CCOC6)C5)CC4(C)C)c(-c4c(Cl)c(Cl)cc5[nH]ncc45)c3C)C2)C1 (single isomer, unassigned) [Example 316a]
26 | 9 | C=CC(=O)N1CC2(CC(n3nc(N4CC[C@@H](CN5CC6(CCOC6)C5)CC4(C)C)c(-c4c(Cl)c(Cl)cc5[nH]ncc45)c3C)C2)C1 (single isomer, unassigned) [Example 316b]
27 | 888 | C=CC(=O)N1CC2(CC(n3nc(N4CC[C@@H](CN5CCC6(C5)CN(C(C)=O)C6)CC4(C)C)c(-c4c(Cl)c(Cl)cc5[nH]ncc45)c3C)C2)C1 (single isomer, unassigned) [Example 317a]
28 | 7 | C=CC(=O)N1CC2(CC(n3nc(N4CC[C@@H](CN5CCC6(C5)CN(C(C)=O)C6)CC4(C)C)c(-c4c(Cl)c(Cl)cc5[nH]ncc45)c3C)C2)C1 (single isomer, unassigned) [Example 317b]
29 | 2700 | C=CC(=O)N1CC2(CC(n3nc(N4CC[C@@H](CN5CCN(C(C)=O)CC5)CC4(C)C)c(-c4c(Cl)c(Cl)cc5[nH]ncc45)c3C)C2)C1 (single isomer, unassigned) [Example 319a]
30 | 9 | C=CC(=O)N1CC2(CC(n3nc(N4CC[C@@H](CN5CCN(C(C)=O)CC5)CC4(C)C)c(-c4c(Cl)c(Cl)cc5[nH]ncc45)c3C)C2)C1 (single isomer, unassigned) [Example 319b]
31 | 3300 | C=CC(=O)N1CC2(CC(n3nc(N4CC[C@@H](CN5CCN(C6COC6)C[C@@H]5COC)CC4(C)C)c(-c4c(Cl)c(Cl)cc5[nH]ncc45)c3C)C2)C1 (single isomer, unassigned) [Example 320a]
32 | < 5 | C=CC(=O)N1CC2(CC(n3nc(N4CC[C@@H](CN5CCN(C6COC6)C[C@@H]5COC)CC4(C)C)c(-c4c(Cl)c(Cl)cc5[nH]ncc45)c3C)C2)C1 (single isomer, unassigned) [Example 320b]
